Experimental data taken from patent publication US11466044B2 (WAYNE STATE UNIVERSITY, priority 2017, dated 2022).
≈ marks a conversion by molar mass, not a printed value.

Experiments:
[1] = tested on: E coli carrying specific resistance determinants; assay: MIC by broth microdilution, E coli carrying specific resistance determinants; format: cell-based
N. gonorrhoeae = assay: Disk diffusion, N. gonorrhoeae; format: cell-based; conditions: 25 nmol
E coli wild type = assay: MIC by broth microdilution, wild type E coli; format: cell-based; conditions: for MIC50 E coli BM13 (AG06) wt: Table 2A (Example 2); for MIC50 E coli pH430 WT: Table 2B (Example 2); for MIC50 E coli AG01: strain AG01; for MIC50 E coli AG01 / MIC50 E coli AG03 / MIC50 E coli AG55: Table 1 (Example 2); for MIC50 E coli AG03: strain AG03; for MIC50 E coli AG55: strain AG55; for MIC AG212 E. coli: strain AG212 E. coli (ATCC25922)
M. smegmatis SZ380 = assay: MIC by broth microdilution, M. smegmatis; conditions: strain SZ380 Mycobacterium smegmatis
[2] = tested on: Enterobacter cloacae AG290; assay: MIC by broth microdilution, Enterobacter cloacae; format: cell-based; conditions: strain AG290 Enterobacter cloacae
P aeruginosa = assay: MIC by broth microdilution, P aeruginosa isolates; format: cell-based, Pseudomonas aeruginosa; conditions: for MIC AG220 P. aerugin: strain AG220 Pseudomonas aeruginosa ATCC27853
[3] = tested on: Acinetobacter baumannii pittii AG225; assay: MIC by broth microdilution, Acinetobacter baumannii; format: cell-based; conditions: strain AG225 Acinetobacter baumannii pittii
[4] = tested on: Klebsiella pneumonia AG215; assay: MIC by broth microdilution, Klebsiella pneumonia; format: cell-based; conditions: strain AG215 Klebsiella pneumonia
MRSA = assay: MIC by broth microdilution, MRSA isolates; format: cell-based; conditions: Table 1 (Example 2); for MIC50 MRSA AG38: strain AG38; for MIC50 MRSA AG39: strain AG39; for MIC50 MRSA AG42: strain AG42; for MIC50 MRSA AG44: strain AG44

SMILES	MIC50 E coli AG036 ANT(4′,4″) ([1]; Table 2B (Example 2)) [µg/mL]	MIC50 E coli AG037 APH(3′)-III ([1]; Table 2B (Example 2)) [µg/mL]	MIC50 E coli AG103 armA ([1]; Table 2B (Example 2)) [µg/mL]	MIC50 E coli pH414 AAC(6′)-I ([1]; Table 2B (Example 2)) [μg/ml]	MIC50 E coli pH415 AAC(6′)-II ([1]; Table 2B (Example 2))	MIC50 E coli pH421 APH(3′)-I ([1]; Table 2B (Example 2)) [μg/ml]	MIC50 E coli pH422 APH(3′)-II ([1]; Table 2B (Example 2)) [μg/ml]	MIC50 E coli pH423 APH(3)-VI ([1]; Table 2B (Example 2)) [μg/ml]	MIC50 E coli pH432 ANT(4′) ([1]; Table 2B (Example 2)) [μg/ml]	Disk diffusion 25 nmol N. gonorrhoeae (N. gonorrhoeae) [mm]	MIC50 E coli BM13 (AG06) wt (E coli wild type) [µg/mL]	MIC50 E coli pH430 WT (E coli wild type)	MIC50 E coli AG01 (E coli wild type) [µg/mL]	MIC50 E coli AG03 (E coli wild type) [µg/mL]	MIC50 E coli AG55 (E coli wild type) [µg/mL]	MIC AG212 E. coli (E coli wild type) [µg/mL]	MIC SZ380 M. smegmatis (M. smegmatis SZ380) [µg/mL]	MIC AG290 E. cloacae [2] [µg/mL]	MIC AG220 P. aerugin (P aeruginosa) [µg/mL]	MIC AG225 A. baumannii [3] [µg/mL]	also measured
CC(N)C1OC(OC2C(N)CC(N)C(O)C2OC2OC(CO)C(OC3OC(CN)C(O)C(O)C3N)C2O)C(N)C(O)C1O (stereo not shown) [Compound 166]	16 (≈ 25.5 µM)	>64	1 (≈ 1.59 µM)	0.5	1-2 μg/ml	>32	>32	>32	0.5	12	0.5 to 1	0.5 μg/ml	2 (≈ 3.18 µM)	2 (≈ 3.18 µM)	2 (≈ 3.18 µM)	1 (≈ 1.59 µM)	0.125 to 0.25	0.5 (≈ 0.795 µM)	>32	1 (≈ 1.59 µM)	MIC50 E coli AG09 AAC(6′) ([1]; AG09 AAC(6′), Table 2A (Example 2)): 0.5 µg/mL (≈ 0.795 µM); MIC50 E coli AG036 ANT(4′,4″) ([1]; Table 2A (Example 2)): 16 µg/mL (≈ 25.5 µM); MIC50 E coli AG037 APH(3′,5″) ([1]; AG037 APH(3′,5″), Table 2A (Example 2)): >64 µg/mL; MIC50 P aeruginosa AG31 (P aeruginosa; strain AG31, Table 1 (Example 2)): ≥128 µg/mL; MIC50 P aeruginosa AG32 (P aeruginosa; strain AG32, Table 1 (Example 2)): 128 µg/mL (≈ 204 µM); MIC50 P aeruginosa AG33 (P aeruginosa; strain AG33, Table 1 (Example 2)): ≥128 µg/mL; MIC50 P aeruginosa AG86 (P aeruginosa; strain AG86, Table 1 (Example 2)): 16 µg/mL (≈ 25.5 µM); MIC AG215 K. pneumon [4]: 0.25 to 0.5 µg/mL; MIC50 MRSA AG38 (MRSA): 2 µg/mL (≈ 3.18 µM); MIC50 MRSA AG39 (MRSA): >128 µg/mL; MIC50 MRSA AG42 (MRSA): >128 µg/mL; MIC50 MRSA AG44 (MRSA): 1 µg/mL (≈ 1.59 µM)
CC(O)C1OC(OC2C(N)CC(N)C(O)C2OC2OC(CO)C(OC3OC(CN)C(O)C(O)C3N)C2O)C(N)C(O)C1O (stereo not shown) [Compound 156]	32 to 64	>32	1 (≈ 1.59 µM)	1	1 μg/ml	>32	>32	>32	1	10	1 (≈ 1.59 µM)	1 μg/ml	4 (≈ 6.35 µM)	4 to 8	4 (≈ 6.35 µM)	2 (≈ 3.18 µM)	0.5 (≈ 0.794 µM)	1 (≈ 1.59 µM)	>32	2 (≈ 3.18 µM)	MIC AG215 K. pneumon [4]: 1 µg/mL (≈ 1.59 µM); MIC50 MRSA AG38 (MRSA): 4 to 8 µg/mL; MIC50 MRSA AG39 (MRSA): >128 µg/mL; MIC50 MRSA AG42 (MRSA): >128 µg/mL; MIC50 MRSA AG44 (MRSA): 2 to 4 µg/mL
C[C@@H](O)[C@H]1O[C@H](O[C@H]2[C@H](O[C@@H]3O[C@H](CO)[C@@H](O[C@H]4O[C@@H](CN)[C@@H](O)[C@H](O)[C@H]4N)[C@H]3O)[C@@H](O)[C@H](N)C[C@@H]2N)[C@H](N)[C@@H](O)[C@@H]1O [Compound 155, 6′(R)-6′-C-Methylparomomycin]	>32	>32	8 (≈ 12.7 µM)	2	2 μg/ml	>32	>32	>32	2	8	2 (≈ 3.18 µM)	1-2 μg/ml	8 to 16	8 to 16	8 to 16	4 (≈ 6.35 µM)	4 (≈ 6.35 µM)	2 to 4	>32	4 (≈ 6.35 µM)	MIC AG215 K. pneumon [4]: 2 µg/mL (≈ 3.18 µM); MIC50 MRSA AG38 (MRSA): 8 µg/mL (≈ 12.7 µM); MIC50 MRSA AG39 (MRSA): >64 µg/mL; MIC50 MRSA AG42 (MRSA): >64 µg/mL; MIC50 MRSA AG44 (MRSA): 4 µg/mL (≈ 6.35 µM)
